Consider one compound from patent US11304964B2, “Bolaamphiphilic compounds, compositions and uses thereof” (priority 2012, dated 2022).

The conditions of data set [1]: human subjects treated orally with 300 mg tenofovir; cited from earlier work.
A short description of data set [2]: Pharmacokinetic studies, second set (LC-MS, brain). It counts as in vivo. The conditions noted are these: pyrido pretreated mice. As to the method: Another group of mice were injected with free tenofovir. The total dose of tenofovir that was injected to the mice that received encapsulated tenofovir was […], out of which 7.5 mg/kg was encapsulated tenofovir. The total dose of tenofovir that was injected to the mice that received free tenofovir was 75 mg/kg. All animals were pretreated with 0.5 mg/kg pyrido. Results are mean of 5 mice±SD.
In the second set of the PK studies, all the mice were pretreated with pyrido 15 min prior to the injection of 7.5 mg/kg tenofovir encapsulated in optimal vesicles or with 75 mg/kg free tenofovir with no vesicles.

The conditions of data set [3]: CNS penetration effectiveness index; cited from earlier work.
Data set [4] in a line: Tenofovir concentration in brain after i.v. tenofovir-loaded vesicles (HPLC-UV of brain homogenate). Format: in vivo, mice. The text has this:
Protein precipitation was accomplished by adding trichloroacetic acid (TCA) at a final concentration of 3.75%, providing a clear supernatant by centrifugation. This supernatant was neutralized by 1% sodium hydroxide solution and the neutralized extract was examined by HPLC with a UV detector, using an isocratic method with 10% aceto-nitrile and 90% buffer of triethyl amine in water adjusted to pH 5.4 with concentrated phosphoric acid. When applied to a solution of tenofovir in buffer without the brain extract, the retention time was 17.3 min (FIG. 8 Panel A). […] The broad peak at 22.5 min overlapped the peak of the tenofovir at 17 min (compare FIG. 8 Panel B to FIG. 8 Panel A) and would interfere with the determination of tenofovir concentration in the extract. To narrow the peak of the endogenous compound with the Rt of 22.5 min, a solid phase extraction (SPE) method was employed, using BOND ELUT-C18 column. After the treatment with SPE some peaks disappeared and the others became narrower.
Different concentrations of tenofovir were then spiked into a supernatant obtained after deproteinization of brain homogenate with TCA and centrifugation. The supernatant with the tenofovir was loaded into the SPE cartridge, which was conditioned by 3 ml methanol and 3 ml of 150 mM ammonium acetate (pH=5.0). After washing with 900 μl of 100 mM ammonium acetate (pH=7.0), in order to obtain less interference at the retention time of each component, the column was eluted by 500 μl of methanol to collect the tenofovir. The solvent was removed under nitrogen at 60° C. The extracted sample was dissolved into 120 μl of water and methanol solution (90:10, v/v) and injected into the HPLC.
In view of the conditions for the determination of tenofovir in brain homogenates established herein, mice were injected with 7.5 mg/kg of tenofovir encapsulated in vesicles prepared as for Table 5 above that contained the optimal GLH-55b and SA and brain homogenates were prepared from the brains of these mice for the determination of tenofovir concentrations. […] This concentration value is significant and should have a therapeutic affect against HIV.
A subsequent in vivo experiment was carried out as above but with testing over different periods of time from of 15 min, 30 min, 60 min and 120 min after IV injection the amount of tenofovir was in micro gr/grm brain 6.2, 2.2, 1.0 and 0.5 respectively. While the free tenofovir injected had levels of 0 less than 0.2 micrograms/gr brain. Thus indicating the efficacy of the vesicles to delivery tenofovir to the brain.

For the compound `C[C@H](Cn1cnc2c(N)ncnc21)OCP(=O)(O)O` [tenofovir, ({[(2R)-1-(6-amino-9H-purin-9-yl)propan-2-yl]oxy}methyl)phosphonic acid], the “blood concentration of tenofovir” value in data set [1] is “about 500 ng/ml”. For the same compound, the “concentration of tenofovir in the brain” value in data set [2] (7.5 mg/kg tenofovir encapsulated in optimized V-Smart vesicles, all time points up to 2 hours, vs estimated therapeutic threshold) is over 100 ng/mL; in data set [4] (mice i.v., 7.5 mg/kg tenofovir encapsulated in vesicles with GLH-55b and SA, estimated from calibration curve), 22.7 μg/gr brain. In addition, the “concentrations of tenofovir in the brain” value in data set [2] (free drug 75 mg/kg, no vesicles, detection limit 40 ng/ml) is recorded as “below the measurable level”. Besides, the concentration at 60 min is about 1000 ng/mL in data set [2] (mouse, brain, intravenous, 7.5 mg/kg encapsulated in optimized V-Smart vesicles, 60 min after the injection, read-out: concentration of tenofovir in the brain) and 1000 ng/g in data set [4] (mouse, brain, 7.5 mg/kg, mice, encapsulated tenofovir in vesicles, 60 min after IV injection, read-out: amount of tenofovir in brain). Moreover, the concentration at 15 min in data set [2] (mouse, brain, intravenous, 7.5 mg/kg encapsulated in optimized V-Smart vesicles, after 15 min, read-out: concentration of tenofovir in the brain) was over 6000 ng/g; in data set [4] (mouse, brain, 7.5 mg/kg, mice, encapsulated tenofovir in vesicles, 15 min after IV injection, read-out: amount of tenofovir in brain), 6200 ng/g. Besides, in data set [3], the CPE rating is recorded as 1. Besides, the “level of tenofovir in brain” value in data set [4] (mice, free tenofovir injected IV) was “less than 0.2 micrograms/gr brain”. Besides, in data set [4] (mouse, brain, 7.5 mg/kg, mice, encapsulated tenofovir in vesicles, 30 min after IV injection, read-out: amount of tenofovir in brain), the concentration at 30 min turned out to be 2200 ng/g. Moreover, the concentration at 120 min in data set [4] (mouse, brain, 7.5 mg/kg, mice, encapsulated tenofovir in vesicles, 120 min after IV injection, read-out: amount of tenofovir in brain) turned out to be 500 ng/g.
